According to the supplement of paper PMC10627819:

Experiments:
S. pneumoniae D39V [1] = assay: Bliss interaction score (quartile over a dose matrix) (fitness difference); higher = more antagonism (negative = synergy)
Method in brief: (§1)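 Growth was read as OD595 when cultures entered stationary phase, and each value was divided by the plate's robust no-drug mean and capped at 1. This normalised ratio is the fitness value, and fitness for each single drug came from the combination data. The Bliss score subtracts the expected fitness, taken as the product, from the observed fitness and is given as quartiles across technical, biological and donor/recipient replicates.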

B. subtilis 168 [2] = assay: as above
Method in brief: as §1

S. aureus Newman = assay: as above
Method in brief: as §1

S. aureus DSM 20231 = assay: as above
Method in brief: as §1

S. pneumoniae D39V [3] = assay: fitness (endpoint OD595 vs no drug) (fraction); higher = more growth
Method in brief: (§2)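 Fitness expresses the optical density reached at the stationary-phase transition as a fraction of the robust mean of no-drug control wells. It is capped at 1. Measurements were OD595 every 30 min for 14 h at 37 °C after inoculation of 384-well plates at OD595 0.01 (30 µl, or 55 µl for S. pneumoniae), minus the first reading.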

B. subtilis 168 [4] = assay: as above
Method in brief: as §2
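For Bliss interaction score (quartile over a dose matrix) in this document: first quartile when negative (synergy) and third quartile when positive (antagonism).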
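For fitness (endpoint OD595 vs no drug) in this document: OD595 on entry to stationary phase over no-drug wells; at most 1.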

C[C@H]1c2cccc(O)c2C(=O)C2=C(O)[C@]3(O)C(=O)C(C(N)=O)=C(O)[C@@H](N(C)C)[C@@H]3[C@@H](O)[C@@H]21 [Doxycycline] + COc1ccc(C[C@H](N)C(=O)N[C@H]2[C@@H](O)[C@H](n3cnc4c(N(C)C)ncnc43)O[C@@H]2CO)cc1 [Puromycin]
Settings | Bliss interaction score
B. subtilis 168 [2] | -0.0496
S. aureus DSM 20231 | -0.0866
S. aureus Newman | -0.0507
S. pneumoniae D39V [1] | 0.0767

fitness, S. pneumoniae D39V [3], one replicate
Settings | partner 1 µg/mL | partner 2 µg/mL | partner 4 µg/mL
first compound 0.003875 µg/mL | ≥ 1 | 0.98 | 0.847
first compound 0.00775 µg/mL | ≥ 1 | 0.976 | 0.86

Settings | fitness
B. subtilis 168 [4], first compound 0.02 µg/mL, partner 0.39 µg/mL | 0.861
B. subtilis 168 [4], first compound 0.02 µg/mL, partner 0.78 µg/mL | 0.858
B. subtilis 168 [4], first compound 0.02 µg/mL, partner 1.56 µg/mL | 0.877
B. subtilis 168 [4], first compound 0.04 µg/mL, partner 0.39 µg/mL | 0.748
B. subtilis 168 [4], first compound 0.04 µg/mL, partner 0.78 µg/mL | 0.751
B. subtilis 168 [4], first compound 0.04 µg/mL, partner 1.56 µg/mL | 0.761
B. subtilis 168 [4], first compound 0.08 µg/mL, partner 0.39 µg/mL | 0.405
S. pneumoniae D39V [3], first compound 0.0155 µg/mL, partner 1 µg/mL | ≥ 1
S. pneumoniae D39V [3], first compound 0.0155 µg/mL, partner 2 µg/mL | 0.97
S. pneumoniae D39V [3], first compound 0.0155 µg/mL, partner 4 µg/mL | 0.834
S. pneumoniae D39V [3], first compound 0.031 µg/mL, partner 1 µg/mL | 0.857
S. pneumoniae D39V [3], first compound 0.031 µg/mL, partner 2 µg/mL | 0.836
S. pneumoniae D39V [3], first compound 0.031 µg/mL, partner 4 µg/mL | 0.73
S. pneumoniae D39V [3], first compound 0.062 µg/mL, partner 1 µg/mL | 0.847
S. pneumoniae D39V [3], first compound 0.062 µg/mL, partner 2 µg/mL | 0.786
S. pneumoniae D39V [3], first compound 0.062 µg/mL, partner 4 µg/mL | 0.637

C[C@H]1c2cccc(O)c2C(=O)C2=C(O)[C@]3(O)C(=O)C(C(N)=O)=C(O)[C@@H](N(C)C)[C@@H]3[C@@H](O)[C@@H]21 [Doxycycline] + C[C@@H]1O[C@@H]1P(=O)(O)O [Fosfomycin]
Settings | Bliss interaction score
B. subtilis 168 [2] | 0.131
S. aureus DSM 20231 | -0.153
S. aureus Newman | -0.113
S. pneumoniae D39V [1] | -0.096

fitness, S. pneumoniae D39V [3], one replicate
Settings | partner 1.25 µg/mL | partner 2.5 µg/mL | partner 5 µg/mL
first compound 0.003875 µg/mL | 0.969 | 0.883 | 0.753
first compound 0.00775 µg/mL | 0.97 | 0.915 | 0.814

fitness
Settings | partner 1.25 µg/mL | partner 1.562 µg/mL | partner 2.5 µg/mL | partner 3.124 µg/mL | partner 5 µg/mL | partner 6.248 µg/mL
B. subtilis 168 [4], first compound 0.02 µg/mL | – | 0.752 | – | 0.645 | – | 0.556
B. subtilis 168 [4], first compound 0.04 µg/mL | – | 0.699 | – | 0.56 | – | 0.419
B. subtilis 168 [4], first compound 0.08 µg/mL | – | 0.5 | – | 0.364 | – | 0.253
S. pneumoniae D39V [3], first compound 0.0155 µg/mL | 0.894 | – | 0.862 | – | 0.791 | –
S. pneumoniae D39V [3], first compound 0.031 µg/mL | 0.799 | – | 0.804 | – | 0.742 | –

C[C@H]1c2cccc(O)c2C(=O)C2=C(O)[C@]3(O)C(=O)C(C(N)=O)=C(O)[C@@H](N(C)C)[C@@H]3[C@@H](O)[C@@H]21 [Doxycycline] + C[C@H]1COc2c(N3CCN(C)CC3)c(F)cc3c(=O)c(C(=O)O)cn1c23 [Levofloxacin]
Settings | Bliss interaction score
B. subtilis 168 [2] | 0.043
S. aureus DSM 20231 | 0.075
S. aureus Newman | 0.0574
S. pneumoniae D39V [1] | 0.0649

fitness, one replicate
Settings | first compound 0.003875 µg/mL | first compound 0.00775 µg/mL | first compound 0.02 µg/mL | first compound 0.031 µg/mL | first compound 0.04 µg/mL | first compound 0.062 µg/mL | first compound 0.08 µg/mL
B. subtilis 168 [4], partner 0.001 µg/mL | – | – | 0.929 | – | 0.859 | – | 0.735
B. subtilis 168 [4], partner 0.0078 µg/mL | – | – | 0.989 | – | 0.859 | – | 0.712
S. pneumoniae D39V [3], partner 0.2 µg/mL | 0.984 | 0.927 | – | 0.822 | – | 0.712 | –
S. pneumoniae D39V [3], partner 0.4 µg/mL | 0.858 | 0.838 | – | 0.816 | – | 0.687 | –
S. pneumoniae D39V [3], partner 0.8 µg/mL | 0.581 | 0.62 | – | 0.697 | – | 0.595 | –

Settings | fitness
B. subtilis 168 [4], first compound 0.02 µg/mL, partner 0.002 µg/mL | 0.937
B. subtilis 168 [4], first compound 0.02 µg/mL, partner 0.0039 µg/mL | 0.939
B. subtilis 168 [4], first compound 0.02 µg/mL, partner 0.0312 µg/mL | 0.0328
B. subtilis 168 [4], first compound 0.02 µg/mL, partner 0.0625 µg/mL | 0.0358
B. subtilis 168 [4], first compound 0.02 µg/mL, partner 0.125 µg/mL | 0.0474
B. subtilis 168 [4], first compound 0.04 µg/mL, partner 0.002 µg/mL | 0.784
B. subtilis 168 [4], first compound 0.04 µg/mL, partner 0.0039 µg/mL | 0.817
B. subtilis 168 [4], first compound 0.04 µg/mL, partner 0.0312 µg/mL | 0.0347
B. subtilis 168 [4], first compound 0.04 µg/mL, partner 0.0625 µg/mL | 0.032
B. subtilis 168 [4], first compound 0.04 µg/mL, partner 0.125 µg/mL | 0.0298
B. subtilis 168 [4], first compound 0.08 µg/mL, partner 0.002 µg/mL | 0.656
B. subtilis 168 [4], first compound 0.08 µg/mL, partner 0.0039 µg/mL | 0.681
B. subtilis 168 [4], first compound 0.08 µg/mL, partner 0.0312 µg/mL | 0.0307
B. subtilis 168 [4], first compound 0.08 µg/mL, partner 0.0625 µg/mL | 0.0405
B. subtilis 168 [4], first compound 0.08 µg/mL, partner 0.125 µg/mL | 0.0329
S. pneumoniae D39V [3], first compound 0.0155 µg/mL, partner 0.1725 µg/mL | 0.895
S. pneumoniae D39V [3], first compound 0.0155 µg/mL, partner 0.2 µg/mL | 0.946
S. pneumoniae D39V [3], first compound 0.0155 µg/mL, partner 0.345 µg/mL | 0.805
S. pneumoniae D39V [3], first compound 0.0155 µg/mL, partner 0.4 µg/mL | 0.887
S. pneumoniae D39V [3], first compound 0.0155 µg/mL, partner 0.69 µg/mL | 0.584
S. pneumoniae D39V [3], first compound 0.0155 µg/mL, partner 0.8 µg/mL | 0.677
S. pneumoniae D39V [3], first compound 0.031 µg/mL, partner 0.1725 µg/mL | 0.889
S. pneumoniae D39V [3], first compound 0.031 µg/mL, partner 0.345 µg/mL | 0.795
S. pneumoniae D39V [3], first compound 0.031 µg/mL, partner 0.69 µg/mL | 0.485
S. pneumoniae D39V [3], first compound 0.062 µg/mL, partner 0.1725 µg/mL | 0.873
S. pneumoniae D39V [3], first compound 0.062 µg/mL, partner 0.345 µg/mL | 0.775
S. pneumoniae D39V [3], first compound 0.062 µg/mL, partner 0.69 µg/mL | 0.652

C[C@H]1c2cccc(O)c2C(=O)C2=C(O)[C@]3(O)C(=O)C(C(N)=O)=C(O)[C@@H](N(C)C)[C@@H]3[C@@H](O)[C@@H]21 [Doxycycline] + C[n+]1ccc(-c2cc[n+](C)cc2)cc1 [Paraquat]
Settings | Bliss interaction score
B. subtilis 168 [2] | 0.0932
S. aureus DSM 20231 | 0.0382
S. aureus Newman | -0.019
S. pneumoniae D39V [1] | 0.036

fitness, S. pneumoniae D39V [3], one replicate
Settings | partner 1.5 µg/mL | partner 3 µg/mL | partner 6 µg/mL
first compound 0.003875 µg/mL | ≥ 1 | ≥ 1 | ≥ 1
first compound 0.00775 µg/mL | ≥ 1 | 0.962 | 0.986

Settings | fitness
B. subtilis 168 [4], first compound 0.02 µg/mL, partner 1.25 µg/mL | 0.905
B. subtilis 168 [4], first compound 0.02 µg/mL, partner 2.5 µg/mL | 0.86
B. subtilis 168 [4], first compound 0.02 µg/mL, partner 5 µg/mL | 0.885
B. subtilis 168 [4], first compound 0.04 µg/mL, partner 1.25 µg/mL | 0.828
B. subtilis 168 [4], first compound 0.04 µg/mL, partner 2.5 µg/mL | 0.839
B. subtilis 168 [4], first compound 0.04 µg/mL, partner 5 µg/mL | 0.772
B. subtilis 168 [4], first compound 0.08 µg/mL, partner 1.25 µg/mL | 0.568
S. pneumoniae D39V [3], first compound 0.0155 µg/mL, partner 1.5 µg/mL | 0.979
S. pneumoniae D39V [3], first compound 0.0155 µg/mL, partner 3 µg/mL | 0.975
S. pneumoniae D39V [3], first compound 0.0155 µg/mL, partner 6 µg/mL | 0.978
S. pneumoniae D39V [3], first compound 0.031 µg/mL, partner 1.5 µg/mL | 0.923
S. pneumoniae D39V [3], first compound 0.031 µg/mL, partner 3 µg/mL | 0.877
S. pneumoniae D39V [3], first compound 0.031 µg/mL, partner 6 µg/mL | 0.898
S. pneumoniae D39V [3], first compound 0.062 µg/mL, partner 1.5 µg/mL | 0.845
S. pneumoniae D39V [3], first compound 0.062 µg/mL, partner 3 µg/mL | 0.841
S. pneumoniae D39V [3], first compound 0.062 µg/mL, partner 6 µg/mL | 0.806
